Reference: ChEMBL document CHEMBL4152276, “Design, synthesis and biological evaluation of N-phenyl-(2,4-dihydroxypyrimidine-5-sulfonamido)benzoyl hydrazide derivatives as thymidylate synthase (TS) inhibitors and as potential antitumor drugs” (Eur J Med Chem, 2018)

Assays:
Format in all cases: functional, cell-based
A549 = assay: Antiproliferative activity against human A549 cells after 24 hrs by MTT assay; settings: A549, 24 h
OVCAR-3 = assay: Antiproliferative activity against human OVCAR3 cells after 24 hrs by MTT assay; settings: OVCAR-3, 24 h
SGC-7901 = assay: Antiproliferative activity against human SGC7901 cells after 24 hrs by MTT assay; settings: SGC-7901, 24 h
MDA-MB-231 = assay: Antiproliferative activity against human MDA-MB-231 cells after 24 hrs by MTT assay; settings: MDA-MB-231, 24 h

SMILES | IC50 (A549) [µM] | IC50 (OVCAR-3) [µM] | IC50 (SGC-7901) [µM] | IC50 (MDA-MB-231) [µM]
Cc1ccc(C(=O)NNC(=O)c2cccc(NS(=O)(=O)c3cnc(O)nc3O)c2)cc1 | > 20 | > 20 | 10.1 | > 20
O=C(NNC(=O)c1ccccc1NS(=O)(=O)c1cnc(O)nc1O)c1ccccc1Cl | 5.29 | 18.2 | 2.41 | 8.31
O=C(NNc1ccccc1F)c1ccccc1NS(=O)(=O)c1cnc(O)nc1O | 9.61 | 9.57 | > 20 | > 20
Cc1cccc(NNC(=O)c2ccccc2NS(=O)(=O)c2cnc(O)nc2O)c1 | > 20 | > 20 | > 20 | > 20
Cc1ccccc1NNC(=O)c1cccc(NS(=O)(=O)c2cnc(O)nc2O)c1 | 14.2 | > 20 | > 20 | > 20
CCCCOc1ccc(C(=O)NNC(=O)c2ccc(NS(=O)(=O)c3cnc(O)nc3O)cc2)cc1 | 9.01 | 12.8 | 14.7 | 11.9
O=C(NNC(=O)c1ccccc1Cl)c1cccc(NS(=O)(=O)c2cnc(O)nc2O)c1 | 3.74 | 7.3 | 6.07 | 2.36
Cc1ccc(C(=O)NNC(=O)c2ccc(NS(=O)(=O)c3cnc(O)nc3O)cc2)cc1 | 15.9 | > 20 | > 20 | > 20
O=C(NNc1ccc(F)cc1)c1cccc(NS(=O)(=O)c2cnc(O)nc2O)c1 | > 20 | > 20 | > 20 | > 20
Cc1ccccc1NNC(=O)c1ccc(NS(=O)(=O)c2cnc(O)nc2O)cc1 | 14.5 | > 20 | > 20 | > 20
O=C(NNC(=O)c1cccc(Cl)c1)c1ccc(NS(=O)(=O)c2cnc(O)nc2O)cc1 | 2.29 | 7.71 | 8.61 | 4.16
O=C(NNC(=O)c1ccc(NS(=O)(=O)c2cnc(O)nc2O)cc1)c1ccc(F)cc1 | > 20 | > 20 | > 20 | > 20
O=C(NNc1ccc(F)cc1)c1ccccc1NS(=O)(=O)c1cnc(O)nc1O | > 20 | > 20 | > 20 | > 20
Cc1ccccc1C(=O)NNC(=O)c1ccccc1NS(=O)(=O)c1cnc(O)nc1O | 5.45 | > 20 | 13 | 5.57
Cc1ccccc1C(=O)NNC(=O)c1ccc(NS(=O)(=O)c2cnc(O)nc2O)cc1 | 15.1 | > 20 | > 20 | 7.04
Cc1cccc(NNC(=O)c2cccc(NS(=O)(=O)c3cnc(O)nc3O)c2)c1 | > 20 | > 20 | > 20 | > 20
O=C(NNc1ccccc1Cl)c1ccc(NS(=O)(=O)c2cnc(O)nc2O)cc1 | 3.34 | 7.23 | 3.63 | 4.01
O=C(NNC(=O)c1cccc(NS(=O)(=O)c2cnc(O)nc2O)c1)c1cccc(Cl)c1 | 6 | 13.5 | 7.31 | 3.18
Cc1cccc(NNC(=O)c2ccc(NS(=O)(=O)c3cnc(O)nc3O)cc2)c1 | > 20 | > 20 | > 20 | > 20

SMILES | IC50 (A549) [µM] | IC50 (OVCAR-3) [µM] | IC50 (SGC-7901) [µM] | IC50 (MDA-MB-231) [µM]
O=C(NNc1cccc(Cl)c1)c1cccc(NS(=O)(=O)c2cnc(O)nc2O)c1 | 6.64 | 8.04 | 11.8 | 7.76
O=C(NNC(=O)c1ccccc1F)c1ccc(NS(=O)(=O)c2cnc(O)nc2O)cc1 | 7.61 | 16 | > 20 | > 20
O=C(NNc1ccccc1F)c1ccc(NS(=O)(=O)c2cnc(O)nc2O)cc1 | 11.7 | > 20 | 16 | > 20
O=C(NNc1cccc(Cl)c1)c1ccccc1NS(=O)(=O)c1cnc(O)nc1O | 5.29 | 5.52 | 10.8 | 11.8
O=C(NNC(=O)c1ccccc1F)c1cccc(NS(=O)(=O)c2cnc(O)nc2O)c1 | 10.8 | 10.8 | > 20 | > 20
CCCCOc1ccc(C(=O)NNC(=O)c2cccc(NS(=O)(=O)c3cnc(O)nc3O)c2)cc1 | 7.76 | 9.2 | 7.37 | 17
Cc1ccccc1C(=O)NNC(=O)c1cccc(NS(=O)(=O)c2cnc(O)nc2O)c1 | 8.01 | > 20 | > 20 | 18.1
Cc1ccccc1NNC(=O)c1ccccc1NS(=O)(=O)c1cnc(O)nc1O | > 20 | > 20 | > 20 | > 20
O=C(NNC(=O)c1ccccc1NS(=O)(=O)c1cnc(O)nc1O)c1ccc(F)cc1 | > 20 | 15.1 | > 20 | > 20
Cc1ccc(C(=O)NNC(=O)c2ccccc2NS(=O)(=O)c2cnc(O)nc2O)cc1 | > 20 | 12.9 | 15.5 | > 20
O=C(NNc1ccccc1F)c1cccc(NS(=O)(=O)c2cnc(O)nc2O)c1 | 11.1 | 17 | > 20 | > 20
O=C(NNC(=O)c1ccccc1NS(=O)(=O)c1cnc(O)nc1O)c1ccccc1F | 7.15 | 15.3 | > 20 | > 20
O=C(NNC(=O)c1ccccc1Cl)c1ccc(NS(=O)(=O)c2cnc(O)nc2O)cc1 | 1.9 | 5.22 | 3.24 | 13.9
O=C(NNc1cccc(Cl)c1)c1ccc(NS(=O)(=O)c2cnc(O)nc2O)cc1 | 7.29 | 8.41 | 11.6 | 17.4
CCCCOc1ccc(C(=O)NNC(=O)c2ccccc2NS(=O)(=O)c2cnc(O)nc2O)cc1 | 4.96 | 5.01 | 6.89 | 6.83
O=C(NNc1ccccc1Cl)c1ccccc1NS(=O)(=O)c1cnc(O)nc1O | 5.48 | 14.1 | > 20 | 18.9
O=C(NNc1ccc(F)cc1)c1ccc(NS(=O)(=O)c2cnc(O)nc2O)cc1 | > 20 | > 20 | > 20 | > 20
O=C(NNC(=O)c1cccc(NS(=O)(=O)c2cnc(O)nc2O)c1)c1ccc(F)cc1 | > 20 | > 20 | > 20 | > 20
O=C(NNc1ccccc1Cl)c1cccc(NS(=O)(=O)c2cnc(O)nc2O)c1 | 1.46 | 3.35 | 2.27 | 2.09
